From PMC10939774 (Antiviral research, 2024)

What was measured:
HBV = settings: patients; ref Bogomolov et al., 2016; cited from earlier work
HBV genotype C = assay: HBV infection of human primary hepatocytes; format: cell-based, hepatitis B virus; settings: 10 μM virus treatment; day 12 after infection; P < 0.0001 vs Ctn
HepG2.2.15-derived HBV = HepG2.2.15-derived HBV infection of HepG2-NTCP cells, HBsAg in culture medium; format: cell-based, hepatitis B virus; settings: 10 μM, HBsAg on Day 12 post-infection
HepG2.2.15 cells [1] = settings: 10 μM, 7 days of culture
HepG2-NTCP cells = assay: Cell viability by WST-8 assay in HepG2-NTCP cells; settings: 10 μM, 7 days, absorbance 450 nm
HepG2.2.15 cells [2] = assay: HBsAg production from HepG2.2.15 cells; format: cell-based, hepatitis B virus; settings: 10 μM, 7 days of culture

Compound: myrcludex-B
- Improvement in clinical conditions and HBV DNA and HBsAg levels (HBV): limited improvement

Compound: CC[C@H](C)[C@H](NC(=O)[C@H](CCCCN)NC(=O)[C@H](CCC(=O)O)NC(=O)[C@H](CCCCN)NC(=O)[C@H](CO)NC(=O)[C@H](CCCCN)NC(=O)[C@H](CCCNC(=N)N)NC(=O)[C@H](Cc1ccccc1)NC(=O)[C@H](Cc1ccccc1)NC(=O)[C@H](CC(=O)O)NC(=O)CNC(=O)[C@H](CC(C)C)NC(=O)[C@@H](N)CC(C)C)C(=O)NCC(=O)N[C@@H](CCCCN)C(=O)N[C@@H](CCC(=O)O)C(=O)N[C@@H](Cc1ccccc1)C(=O)N[C@@H](CCCCN)C(=O)N[C@@H](CCCNC(=N)N)C(=O)N[C@H](C(=O)N[C@H](C(=O)N[C@@H](CCC(N)=O)C(=O)N[C@@H](CCCNC(=N)N)C(=O)N[C@H](C(=O)N[C@@H](CCCCN)C(=O)N[C@@H](CC(=O)O)C(=O)N[C@@H](Cc1ccccc1)C(=O)N[C@@H](CC(C)C)C(=O)N[C@@H](CCCNC(=N)N)C(=O)N[C@@H](CC(N)=O)C(=O)N[C@@H](CC(C)C)C(=O)N[C@H](C(=O)N1CCC[C@H]1C(=O)N[C@@H](CCCNC(=N)N)C(=O)N[C@H](C(=O)N[C@@H](CCC(=O)O)C(=O)N[C@@H](CO)C(=O)O)[C@@H](C)O)C(C)C)[C@@H](C)CC)C(C)C)[C@@H](C)CC [LL-37]
- HBV DNA in the culture medium of HBV-infected human primary hepatocytes (HBV genotype C): significant reductions
- HBeAg level in HBV-infected human primary hepatocytes (HBV genotype C): significant reductions
- Effect on HBsAg level of pre-treatment of cells only (HepG2.2.15-derived HBV; HepG2-NTCP cells treated 24 hours before infection): minimal
- Effect on HBsAg level of post-treatment of infected cells only (HepG2.2.15-derived HBV; during 11 days of culture after washing): minimal
- Viability of treated HepG2.2.15 cells (HepG2.2.15 cells [1]): 88.6%
- Cell viability, percentage of Ctn-treated cells (HepG2-NTCP cells): 77.6 ± 6.9%
- HBsAg level in the culture medium of HepG2.2.15 cells compared to Ctn-treated cells (HepG2.2.15 cells [2]): comparable
